The nature of data set [1]: cells. Conditions: Rattus norvegicus.
Description: Induction of rat oligodendrocyte precursor cells differentiation assessed as myelin basic protein expression by immunostaining based assay
Data set [2] is described as follows: Oral bioavailability in C57BL/6 mouse at 10 mg/kg administered as a single dose. Format: ADME, organism-based. The note with it: in vivo.
For a further data set, the target named is Cytochrome P450 2C9 (Homo sapiens, UniProt P11712). The data set is described as follows: Inhibition of CYP2C9 in human liver microsomes. The class given is ADME. In general terms: Liver microsomes are a subcellular fraction often used to study metabolism.
Chain of Cytochrome P450 2C9 (P11712 whole entry): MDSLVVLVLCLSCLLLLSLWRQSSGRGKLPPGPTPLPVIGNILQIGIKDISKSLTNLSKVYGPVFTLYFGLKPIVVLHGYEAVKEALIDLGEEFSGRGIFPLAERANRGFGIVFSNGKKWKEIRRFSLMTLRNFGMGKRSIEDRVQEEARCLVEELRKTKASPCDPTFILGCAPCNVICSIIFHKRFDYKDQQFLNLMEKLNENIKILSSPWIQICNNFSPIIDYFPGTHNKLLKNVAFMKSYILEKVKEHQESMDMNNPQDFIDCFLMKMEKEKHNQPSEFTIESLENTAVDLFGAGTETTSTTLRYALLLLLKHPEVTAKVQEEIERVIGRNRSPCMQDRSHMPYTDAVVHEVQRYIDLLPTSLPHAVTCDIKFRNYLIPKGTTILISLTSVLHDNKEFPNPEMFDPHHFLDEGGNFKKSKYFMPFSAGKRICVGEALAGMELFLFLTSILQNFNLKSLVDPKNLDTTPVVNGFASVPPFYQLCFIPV
Data set [3] can be described thus: AUClast in C57BL/6 mouse at 10 mg/kg, po administered as a single dose. Format: ADME, organism-based. Further details: dose 10 mg/kg, route oral, time 0 - last. Conditions: in vivo.
Data set [4] is described as follows: in vitro. The note with it: mouse.
Description: Metabolic stability in mouse assessed as parent compound remaining after 30 mins
The target in the next data set is hERG (KCNH2) (Homo sapiens, UniProt Q12809). Description: in vitro.
Chain of hERG (KCNH2) (Q12809 whole entry): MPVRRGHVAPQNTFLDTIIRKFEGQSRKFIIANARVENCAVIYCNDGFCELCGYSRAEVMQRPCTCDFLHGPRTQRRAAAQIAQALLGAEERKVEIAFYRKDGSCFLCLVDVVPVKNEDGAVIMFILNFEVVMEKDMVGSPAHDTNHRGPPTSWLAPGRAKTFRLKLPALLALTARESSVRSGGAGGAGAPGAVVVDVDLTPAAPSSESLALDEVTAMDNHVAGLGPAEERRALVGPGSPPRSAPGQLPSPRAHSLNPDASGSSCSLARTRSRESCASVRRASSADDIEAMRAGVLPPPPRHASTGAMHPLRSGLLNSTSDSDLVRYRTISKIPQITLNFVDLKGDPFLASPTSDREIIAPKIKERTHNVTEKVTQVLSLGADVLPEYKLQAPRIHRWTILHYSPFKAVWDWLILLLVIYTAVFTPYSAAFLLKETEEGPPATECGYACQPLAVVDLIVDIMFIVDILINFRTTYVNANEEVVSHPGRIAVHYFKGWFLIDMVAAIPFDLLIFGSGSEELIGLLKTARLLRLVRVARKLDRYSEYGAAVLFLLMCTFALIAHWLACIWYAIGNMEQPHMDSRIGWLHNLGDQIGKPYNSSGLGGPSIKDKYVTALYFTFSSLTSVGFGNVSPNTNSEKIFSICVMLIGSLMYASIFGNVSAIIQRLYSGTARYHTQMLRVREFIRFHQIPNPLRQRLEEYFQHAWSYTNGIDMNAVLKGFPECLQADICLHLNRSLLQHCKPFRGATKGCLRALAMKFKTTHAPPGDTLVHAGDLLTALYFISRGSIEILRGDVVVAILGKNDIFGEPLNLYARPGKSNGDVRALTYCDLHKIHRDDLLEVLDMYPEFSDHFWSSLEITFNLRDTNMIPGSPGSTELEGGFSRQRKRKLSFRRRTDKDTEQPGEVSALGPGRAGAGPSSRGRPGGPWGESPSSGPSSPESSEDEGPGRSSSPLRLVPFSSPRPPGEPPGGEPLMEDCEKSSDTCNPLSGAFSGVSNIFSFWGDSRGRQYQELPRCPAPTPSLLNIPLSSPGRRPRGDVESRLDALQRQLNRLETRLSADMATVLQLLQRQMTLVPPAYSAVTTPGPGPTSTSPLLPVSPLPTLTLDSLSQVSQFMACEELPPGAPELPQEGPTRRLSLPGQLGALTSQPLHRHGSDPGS
The nature of data set [5]: Brain to plasma permeability coefficient, Kp of the compound in C57BL/6 mouse after 0.5 hrs. The class given is ADME.
Data set [6] can be described thus: cells. The note with it: Rattus norvegicus. This is another data set of the same source.
Description: Induction of rat oligodendrocyte precursor cells differentiation assessed as myelin basic protein expression by immunostaining based assay relative to control
The nature of data set [7]: Elimination half life in C57BL/6 mouse at 10 mg/kg, po administered as a single dose. Format: ADME, organism-based. The note with it: in vivo, read-out: beta t1/2 (converted).
Data set [8] can be described thus: Brain to plasma permeability coefficient, Kp of the compound in C57BL/6 mouse after 4 hrs. The class given is ADME.
The nature of data set [9]: Cmax in C57BL/6 mouse at 10 mg/kg, po administered as a single dose. Format: ADME, organism-based. Further details: dose 10 mg/kg, route oral. Conditions: in vivo.
The nature of data set [10]: Volume of distribution in C57BL/6 mouse at 1 mg/kg, iv administered as a single dose. The note with it: in vivo. The class given is ADME, organism-based.
Data set [11] is described as follows: in vitro. Conditions: human.
Description: Metabolic stability in human assessed as parent compound remaining after 30 mins
A short description of another data set: physchem. The note with it: buffer, pH 7.4.
A short description of data set [12]: Plasma clearance in C57BL/6 mouse at 1 mg/kg, iv administered as a single dose. The class given is ADME, organism-based.
The target of a further data set is Cytochrome P450 3A4 (Homo sapiens, UniProt P08684). Description: Inhibition of CYP3A4 in human liver microsomes. Format: ADME.
Chain of Cytochrome P450 3A4 (P08684 whole entry): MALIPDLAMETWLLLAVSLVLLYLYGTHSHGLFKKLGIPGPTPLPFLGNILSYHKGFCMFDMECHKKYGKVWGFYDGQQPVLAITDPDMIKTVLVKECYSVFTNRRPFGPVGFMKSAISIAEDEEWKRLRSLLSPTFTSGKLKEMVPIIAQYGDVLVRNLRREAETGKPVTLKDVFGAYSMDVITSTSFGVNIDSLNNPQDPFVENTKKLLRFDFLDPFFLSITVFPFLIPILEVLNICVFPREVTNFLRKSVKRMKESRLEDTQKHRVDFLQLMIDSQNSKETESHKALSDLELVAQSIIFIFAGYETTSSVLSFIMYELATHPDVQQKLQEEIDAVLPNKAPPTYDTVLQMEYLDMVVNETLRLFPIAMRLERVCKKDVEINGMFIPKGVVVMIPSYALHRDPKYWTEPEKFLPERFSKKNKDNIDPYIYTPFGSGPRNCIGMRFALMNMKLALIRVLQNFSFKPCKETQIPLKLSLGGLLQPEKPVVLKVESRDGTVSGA
A further data set addresses CYP2D6 (Homo sapiens, UniProt P10635). The data set is described as follows: Inhibition of CYP2D6 in human liver microsomes at 10 uM. The class given is ADME.
A further data set relates to Mus musculus. Description: Immunosuppressive activity in MOG (35 to 55 residues)/pertussis toxin-induced experimental autoimmune encephalomyelitis C57BL/6 mouse model assessed as reduction in development of clinical symptoms at 50 mg/kg, po administered once a day starting from day 3 post immunization upto 17 days. Format: functional, organism-based.

The source of these data is ChEMBL document CHEMBL4627279, “Discovery and structure-activity relationships of spiroindolines as novel inducers of oligodendrocyte progenitor cell differentiation” (Bioorg Med Chem, 2020).

Calls of active or inactive are those of the source. No cut-off for these calls is given here.

Chain of CYP2D6 (P10635 whole entry, the tested form may be a part): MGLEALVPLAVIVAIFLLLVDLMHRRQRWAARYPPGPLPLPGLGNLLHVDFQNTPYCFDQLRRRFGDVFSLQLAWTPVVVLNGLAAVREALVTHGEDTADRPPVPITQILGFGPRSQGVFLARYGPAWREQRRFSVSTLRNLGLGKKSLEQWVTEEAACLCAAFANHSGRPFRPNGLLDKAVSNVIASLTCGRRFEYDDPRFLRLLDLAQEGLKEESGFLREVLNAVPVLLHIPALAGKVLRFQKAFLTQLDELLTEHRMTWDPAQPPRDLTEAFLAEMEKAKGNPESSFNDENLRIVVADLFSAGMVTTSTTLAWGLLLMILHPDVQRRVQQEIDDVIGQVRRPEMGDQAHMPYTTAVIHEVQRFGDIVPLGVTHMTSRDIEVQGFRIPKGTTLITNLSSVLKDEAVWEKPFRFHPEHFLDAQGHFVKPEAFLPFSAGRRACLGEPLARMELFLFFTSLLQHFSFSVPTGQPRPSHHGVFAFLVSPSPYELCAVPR
Description for hERG (KCNH2): Inhibition of human ERG at 10 uM
Description for physchem: Lipophilicity, log D of the compound at pH 7.4

For `CC(C)c1ccc2c(c1)C(=O)C1(CCN(CC3CCC3)CC1)N2`, a half-maximal effect in the data set “cells [1]” (EC50) was put at 16 nM. This lies in the double-digit nanomolar range.

As for `CC(C)c1ccc2c(c1)C(=O)C1(CCN(S(=O)(=O)C3CC3)CC1)N2`, the EC50 in “cells [1]” is > 10000 nM.

`CC(C)c1ccc2c(c1)C(=O)C1(CCN(CC3CCCCC3)CC1)N2` had a half-maximal effective concentration (EC50) in the data set “cells [1]” of 37 nM.

For the compound `O=C1c2ccccc2NC12CCN(CC1CCOCC1)CC2`, the EC50 in “cells [1]” came to 550 nM.

Turning to `O=C1c2cc(O)ccc2NC12CCN(CC1CCOCC1)CC2`, in “cells [1]”, the EC50 was > 10000 nM.

With `CC(C)c1ccc2c(c1)C(=O)C1(CCN(CCc3ccccc3)CC1)N2`, the 50% effective concentration (EC50) in “cells [1]” turned out to be 540 nM.

`CC(C)(C)c1ccc2c(c1)C(=O)C1(CCN(CC3CCOCC3)CC1)N2`: the EC50 in “cells [1]” worked out at 9.9 nM.

In the case of `CC(C)c1ccc2c(c1)C(=O)C1(CCN(Cc3ccccc3)CC1)N2`, the EC50 in the data set “cells [1]” was 330 nM.

For the compound `CN1c2ccc(C(F)(F)F)cc2C(=O)C12CCN(CC1CCOCC1)CC2`, it took 9.3 nM to reach a half-maximal effect in the data set “cells [1]” (EC50).

On to `CN1c2ccc(C(F)(F)F)cc2CC12CCN(CC1CCOCC1)CC2`, for which, in the data set “cells [1]”, the 50% effective concentration (EC50) worked out at 7100 nM.

The compound `COC1c2cc(C(F)(F)F)ccc2NC12CCN(CC1CCOCC1)CC2` (stereo unspecified) had an EC50 in “cells [1]” of 5.7 nM.

With `FC(F)(F)c1ccc2c(c1)CC1(CCN(CC3CCOCC3)CC1)N2`, in the data set “cells [1]”, a half-maximal response (EC50) required 240 nM.

Turning to `CCCN1CCC2(CC1)Nc1ccc(C(C)C)cc1C2=O`, in “cells [1]”, the EC50 was determined as 550 nM.

`CC(C)Oc1ccc2c(c1)C(=O)C1(CCN(CC3CCOCC3)CC1)N2` yielded an EC50 in “cells [1]” of 59 nM.

As to `CC(C)c1ccc2c(c1)C(=O)C1(CCN(C(=O)C3CC3)CC1)N2`, the EC50 in “cells [1]” was > 10000 nM.

`O=C1c2cc(C(F)(F)F)ccc2CC12CCN(CC1CCOCC1)CC2` registered an EC50 in “cells [1]” of 110 nM.

`COc1ccc2c(c1)C(=O)C1(CCN(CC3CCOCC3)CC1)N2` came in with an EC50 in the data set “cells [1]” of 970 nM. This EC50 lies about 8.8-fold higher than the previous one.

Compound `CC(C)c1ccc2c(c1)C(=O)C1(CCN(CC3CCOCC3)CC1)N2` came in with an EC50 in the data set “cells [1]” of 4.6 nM.

In turn, `O=C1c2cc(Cl)ccc2NC12CCN(CC1CCOCC1)CC2` gave an EC50 in “cells [1]” of 320 nM.

`CC(C)CN1CCC2(CC1)Nc1ccc(C(C)C)cc1C2=O` returned an EC50 in the data set “cells [1]” of 330 nM.

Take `O=C1c2cc(C(F)(F)F)ccc2NC12CCN(CC1CCOCC1)CC2`: the bioavailability in data set [2] came to 116%. The same compound displayed an EC50 in the data set “cells [1]” of 3.2 nM. Moreover, the IC50 against Cytochrome P450 2C9 and against Cytochrome P450 3A4 was > 18000 nM each time. Also, in data set [3], the AUC(0-t) turned out to be 1780 ng·h/mL. For the same compound, the fraction remaining at 0.5 h in “in vitro [4]” was 68%; in “in vitro [11]”, 35%. Further, the results for the inhibition at 10 µM against hERG (KCNH2) and at CYP2D6 were 94% and 70%, respectively. The Kp at 0.5 h in data set [5] came to 25.5. Moreover, the Emax in the data set “cells [6]” came out at 240%. Besides, the half-life in [7] was 6.4 h. In addition, the Kp at 4 h in data set [8] was found to be 50.9. Also, the concentration in data set [9] peaked (Cmax) at 308 ng/mL. In data set [10], this compound gave a Vd of 31.5 L/kg. In the data set “physchem”, the logD is 2.8. In data set [12], this compound came in with a clearance of 79.2 mL/min/kg. Further, the outcome in the data set on Mus musculus was Active.

In the case of `CC(C)c1ccc2c(c1)C(=O)C1(CCN(CC3CCCC3)CC1)N2`, a half-maximal response in “cells [1]” (EC50) required 25 nM.

Consider `O=C1c2cc(C(F)(F)F)ccc2OC12CCN(CC1CCOCC1)CC2`, for which, in the data set “cells [1]”, the EC50 came to 480 nM.

In “cells [1]”, `OC1c2cc(C(F)(F)F)ccc2NC12CCN(CC1CCOCC1)CC2` (stereo unspecified) displayed an EC50 of 520 nM.

As usually defined, the EC50 is the concentration giving half of the maximal effect. A higher EC50 goes with lower potency in that assay. The IC50 is the point on the concentration scale where inhibition reaches its midpoint. Low readings indicate greater potency in that assay, high ones weaker potency in that assay. Broadly, the AUC(0-t) is the area under the concentration-time curve up to a stated or last time point. Lower therefore signals less exposure. By fraction remaining is commonly meant the share of the starting amount still present when the sample was taken. Higher therefore signals greater stability. By inhibition is commonly meant the change of the read-out against control, counted positive when it falls. As a reminder, the Kp is the ratio of the level in a tissue or fluid to that in plasma or blood. One may read the Emax as the greatest response seen or fitted, relative to the assay's reference. For orientation: Cmax means the peak of the concentration-time curve. By Vd is commonly meant a proportionality between amount in the body and measured concentration, not a real space. Low readings indicate confinement near the circulation, high ones extensive tissue distribution. The logD is lipophilicity at a set pH, counting ionised and neutral species. Usually clearance stands for the rate of elimination divided by the concentration. Higher therefore signals efficient removal.
